According to patent US20240398737A1, “FUNCTIONALIZED LONG-CHAIN HYDROCARBON MONO- AND DI-CARBOXYLIC ACIDS AND DERIVATIVES THEREOF, AND THEIR USE FOR THE PREVENTION OR TREATMENT OF DISEASE” (Espervita Therapeutics, Inc., priority 2021, published 2024):
Entries after “also recorded” stand apart in the source; their conditions may differ.

Legend:
MLCK/MYLK = MLCK/MYLK (Homo sapiens (Human), UniProt Q15746); experiment: Wild type kinase screen: MLCK/MYLK; type: biochemical; details: compound at 10 μM, 10 μM ATP, Data 1 and Data 2 duplicates
[1] = system: UUO-induced renal fibrosis; experiment: Murine unilateral ureter obstruction (UUO) renal fibrosis model; type: in vivo, mouse; details: 100 mg/kg oral gavage daily for 9 days after UUO, mice
Description: Animal studies were carried out in accordance with the principles of laboratory animal care of the Canadian Council on Animal Care guidelines. Male C57BL/6 mice were obtained from Charles Rivers Laboratories. FIG. 13A summarizes the timeline for this experiment. UUO model was created as follows: male C57BL6J mice (8 weeks old from Charles River Laboratories) were anesthetized with 4% isofluorane and an anesthetic plane was maintained throughout surgery at 1.5-2% isofluorane with 1 L/min oxygen. A 0.5 cm incision was made longitudinally on the left flank. The left ureter and lower pole of the kidney was exposed, and the ureter was ligated with a 6′0 silk suture in close proximity to the renal pelvis. A sham operation control group was created by surgical exposure of the left ureter and lower pole of the kidney followed by closure of the incision. Subcutaneous fluids were given (1.5 ml 0.9% NaCl) and the incision was closed with 4′0 silk sutures followed by staples for the skin. Starting the day of model creation, the animals were given a daily dose of either vehicle alone (sham surgery and UUO control, 1.5% CMC and 0.2% Tween-20) or vehicle containing Compound I-32 or Compound I-1 (at 100 mg/kg) by oral gavage for 9 days following surgery. At the end of the treatment period mice were anesthetized prior to euthanasia by bilateral thoraco-abdominal incision. Blood was collected by cardiac puncture, followed by kidney perfusion with cold saline through left ventricular cannulation. The left kidney was removed, a sample taken and fixed in formalin for histological analysis. Trichrome staining was done on formalin-fixed sections (4 μm) following deparaffinization according to manufacturer's instructions (Sigma HT15-1KT). Images were quantified by measuring the percentage of positive area using Image J on micrographs captured at x200 magnification using the BX41 Olympus microscope. Statistical analysis was performed using GraphPad Prism 8. A one-way ANOVA was used to determine significance. A p-value of less than or equal to 0.05 was used as the criterion of significance. This route was selected because it simulates oral administration to mammalian, including human, subjects and ensures that the correct dose of compound is ingested by each animal.
Immunohistochemistry. Formalin-fixed kidneys were embedded in paraffin, then sectioned at 4 μm. After deparaffinization, they were stained with Masson's trichrome to assess collagen content (Sigma Aldrich, catalogue no. HT15-1T), picrosirius red (PSR) to more specifically assess pathogenic collagens I and III (Polysciences, Inc., catalogue no. 24901-500), αSMA as a marker of activated, profibrotic fibroblasts (PIERCE, catalogue no. MA1-06110; 30 min steaming for antigen retrieval, antibody used at 1:5000 for 2 h at room temperature), CD3 to identify T-lymphocytes (Dako, catalogue no. A0452; 30 min steaming for antigen retrieval, antibody used at 1:500 overnight at 4° C.) and F4/80 to identify macrophages (done by the McMaster Histology Facility). Slides were counterstained with hematoxylin, dehydrated twice with 90% ethanol, cleared twice with xylene, coverslipped with mounting media, and then left to dry overnight before imaging. Masson's trichrome, αSMA, CD3 and F4/80 were imaged under transmitted light and quantified using ImageJ. The Olympus IX81 fluorescence microscope driven by Metamorph was used to image and quantify PSR staining. Images were quantified by measuring the percentage of positive area. All micrographs were captured at x20 magnification.

Human ACC1 = Human ACC1 (Homo sapiens (Human), UniProt Q13085); experiment: ACC1 enzymatic assay (ADP-Glo); type: biochemical; parameters: key to Compound IC50 (M) ACC1: *: No detectable inhibition or compound activity; details: recombinant human ACC1 5 nM; 10 concentrations from 300 μM; Runs 1-3
Description: Human ACC1 (Cat #50202 Lot #120830) and ACC2 (Cat #50201 Lot #160217) were obtained from BPS Biosciences, San Diego, CA 92121. Human ACC1 had C-terminal flag and His-tags with a MW of 270 KDa after purification from Baculovirus infected Sf9 cell expression system and came as a solution in 50 mM Tris-HCl, pH 8.0, 500 mM NaCl, 10% glycerol, 1 mM DTT, 100 μg/ml FLAG peptide with 70% purity. The stock concentration was 0.25 mg/ml corresponding to 0.926 μM. Human ACC2 was also purified from Baculovirus infected Sf9 expression system. […] The stock concentration was 0.1 mg/ml corresponding to 0.36 μM. The assay buffer for measuring the activity of ACC contained: 30 mM HEPES (pH 7.4), 2 mM MgCl2, 0.01% Brij35, 2 mM DTT, 1% DMSO (solvent for compound). For ACC1 and ACC2 assays, the following concentrations of substrate and cofactors were used: 12 mM NaHCO3, 10 μM acetyl CoA, 10 μM ATP, and 2 mM K-citrate. The recombinant human enzyme was used at 5 nM for ACC1 and 1 nM for ACC2. In brief, enzyme alone in the above buffer without substrate was used for background. All test materials were dissolved in 100% DMSO using acoustic technology (Echo550). The prepared solution was preincubated for 15 min followed by the addition of 5 μL/well of ADP standard. ATP was then added to start the reaction. The assay contents were spun and briefly shaken followed by incubation at room temperature for 1 h. At the end of completion of assay, 5 μL of ADP-Glo was added to each well to stop the reaction. The contents were mixed, spun and incubated at room temperature for 40 min followed by the addition of 10 μL/well of ADP detection reagent. The contents were spun, mixed and covered with plastic to measure luminescence. […] The light generated, measured in a luminometer, correlates to the amount of ADP generated in the ACC assay, which is indicative of ACC activity.
The enzyme concentrations for ACC1 and ACC2 were 5 nM and 1 nM, respectively.
Data represent nM or μM ADP produced, % Activity (relative to no inhibitor controls), and curve fits were performed by GraphPad Prism software. […]

SMILES | % Enzyme Activity (relative to DMSO controls) (MLCK/MYLK) | Markers of fibrosis / UUO-induced renal fibrosis [1] | Renal T-lymphocyte infiltration (CD3 stain) [1] | Renal macrophage infiltration (F4/80 stain) [1] | Trichrome staining (kidney fibrosis) [1] | αSMA staining (kidney fibrosis) [1] | Compound IC50 (M) ACC1 (Human ACC1)
CC(C)(CCCCc1cccc(CCCCC(C)(C)C(=O)O)c1)C(=O)O [Compound I-32, 6-[3-(5-carboxy-5-methylhexyl)-phenyl]-2,2-dimethylhexanoic acid] | 103.59% | attenuated | no effect; also recorded: unaffected | significantly reduced; also recorded: similarly effective in decreasing | trend to reduction | trend to reduction | –
CC(C)(CCCCc1ccc(CCCCC(C)(C)C(=O)O)cc1)C(=O)O [Compound I-1, 6-[4-(5-carboxy-5-methylhexyl)-phenyl]-2,2-dimethylhexanoic acid] | 106.34% | attenuated | no effect; also recorded: unaffected | significantly reduced; also recorded: similarly effective in decreasing | decreased | decreased | *
